Measurements as given in patent US20050165109A1, “Pharmaceutical composition with combined active agents and methods for using the same” (priority 2002, published 2005).

How the values were obtained:
[1] = literature: WO 99/40904, U.S. Pat. No. 5,304,575, Vuorinen-Markkola 1993, Hernandez-Mijares 2000; cited from earlier work
[2] = system: ob/ob mice; assay: Plasma glucose in ob/ob mice, metformin/gemfibrozil, oral once a day for 3 days; type: in vivo; settings: for Effect on plasma glucose concentrations (in words) / Glucose levels Day 3: ob/ob mice; for Effect on plasma glucose concentrations (in words): 3 days oral, versus vehicle; for Difference between Vehicle & treatment: plasma glucose Day 3, ob/ob mice; for Difference between Vehicle & treatment / Glucose levels Day 3: metformin 90 mg/kg, gemfibrozil 100 mg/kg; for Glucose levels Day 3: plasma glucose, oral once a day for 3 days
Procedure: (§1) Experiment was conducted in ob/ob mice, an animal model of diabetes. Male, 8-9 week old ob/ob mice were purchased from Jackson Laboratory (Bar Harbor, Me.) and housed in a temperature and humidity controlled room with 12 hour light (6 am to 6 pm)/dark (6 pm-6 am) cycle and ad libitum of water and regular Purina chow. Animals were screened for plasma glucose levels and randomized into groups for experiments.
In this experiment, 8 animals were orally dosed with vehicle, metformin (90 mg/kg), gemfibrozil (100 mg/kg), or combination of metformin (90 mg/kg) and gemfibrozil (100 mg/kg) once a day for 3 days. Plasma glucose concentrations were determined at the end of the experiment.

[3] = system: ob/ob mice; assay: Plasma glucose in ob/ob mice, metformin/ciprofibrate, oral once a day for 4 days; type: in vivo; settings: for Effect on plasma glucose concentrations (in words) / Glucose levels Day 4: ob/ob mice; for Effect on plasma glucose concentrations (in words): 4 days oral, versus vehicle; for Difference between Vehicle & treatment: plasma glucose Day 4, ob/ob mice; for Difference between Vehicle & treatment / Glucose levels Day 4: metformin 90 mg/kg, ciprofibrate 2.5 mg/kg; for Glucose levels Day 4: plasma glucose, oral once a day for 4 days
Procedure: as §1
Experiment was conducted in ob/ob mice. The experimental condition was the same as Working Example 1.
In this experiment, 8 animals were orally dosed with vehicle, metformin (90 mg/kg), ciprofibrate (2.5 mg/kg), or combination of metformin (90 mg/kg) and ciprofibrate (2.5 mg/kg) once a day for 4 days. Plasma glucose concentrations were determined at the end of the experiment.

SMILES	Glucose-lowering effect (in words) [1]	Effect on plasma glucose concentrations (in words) [2]	Effect on plasma glucose concentrations (in words) ([2]; listed as gemfibrozil)	Difference between Vehicle & treatment [2]	Glucose levels Day 3 [2]	Effect on plasma glucose concentrations (in words) [3]	Effect on plasma glucose concentrations (in words) ([3]; listed as ciprofibrate)	Difference between Vehicle & treatment [3]	Glucose levels Day 4 [3]
Cc1ccc(C)c(OCCCC(C)(C)C(=O)O)c1 [Gemfibrozil, gemfibrozil]	lack of glucose-lowering effect	did not have significant effect on glucose level	minimum reduction of plasma glucose and it was not statistically significant	-57.1 mg/dL	349.7 ± 39.0 mg/dL	–	–	–	–
CC(C)(Oc1ccc(C2CC2(Cl)Cl)cc1)C(=O)O (stereo not shown) [Ciprofibrate, ciprofibrate]	lack of glucose-lowering effect	–	–	–	–	did not have significant effect on glucose levels	minimum effect on reducing plasma glucose and it was not statistically significant	-32.2 mg/dL	351.1 ± 23.1 mg/dL
CN(C)C(=N)N=C(N)N [Metformin, metformin]	–	significantly reduced plasma glucose concentrations	–	-88.2 mg/dL	318.6 ± 29.3 mg/dL	significantly reduced plasma glucose concentrations	–	-84.1 mg/dL	299.2 ± 24.9 mg/dL
